The values that follow come from patent US9556098B2, “Reduced coenzyme Q10 crystal having excellent stability” (KANEKA CORPORATION, priority 2011, dated 2017).

Common to all, as to assay type: physicochemical
Data set [1] in a line: Solubility of the crystal in hexane. The note with it: n-hexane, temperature of 25° C. The procedure:
(§1) The inside of a 300 mL reaction flask (made of heat resistant glass) was replaced with nitrogen, and thereafter 40 g of commercially available reduced coenzyme Q10 (produced by Kaneka Corporation, conventionally known reduced coenzyme Q10 crystal) and 60 g of n-hexane were charged thereto and warmed to 40° C. with stirring to completely dissolve the reduced coenzyme Q10 in n-hexane. The solution was cooled to 25° C. at a cooling rate of 10° C./hour, then kept at 25° C. for 96 hours while being continuously stirred, and subjected to filtration and drying (drying under reduced pressure, 20 to 40° C.) to provide a crystal. From the result of analysis by DSC, the crystal was confirmed to have an endothermic peak indicating melting at 54.2° C. during temperature rise at a rate of 5° C./min, and an endothermic peak indicating melting at 51.6° C. during temperature rise at a rate of 1° C./min. In addition, as the result of analysis by powder X-ray diffraction, characteristic peaks at diffraction angles (2θ±0.2°) of 11.50°, 18.26°, 19.30°, 22.30°, 23.00° and 33.14° were observed as shown in FIG. 1. […] From the above analysis results, it was confirmed that the reduced coenzyme Q10 crystal obtained in the present Example was in a different crystal form from the conventionally known reduced coenzyme Q10 crystal. The solubility of the resulting crystal in hexane was measured, and found to be 9% by weight at a temperature of 25° C.

Data set [2] can be described thus: Sticking property due to electrostatic charge during pulverization by a mortar. The conditions noted are these: collection by stainless spatula. The procedure:
as §1, with “The solubility of the resulting crystal in hexane was measured, and found to be 9% by weight at a temperature of 25° C.” left out

Data set [3] can be described thus: Solubility of the crystal in ethanol. The conditions noted are these: temperature of 30° C.

With `COc1c(O)c(C)c(C/C=C(\C)CC/C=C(\C)CC/C=C(\C)CC/C=C(\C)CC/C=C(\C)CC/C=C(\C)CC/C=C(\C)CC/C=C(\C)CC/C=C(\C)CCC=C(C)C)c(O)c1OC` [Comparative Example 1, reduced coenzyme Q10], in data set [1], the solubility in hexane is recorded as 36.5 % by weight. The “sticking property due to electrostatic charge” value in data set [2] was “exhibited remarkable sticking property”.
For the compound `COc1c(O)c(C)c(C/C=C(\C)CC/C=C(\C)CC/C=C(\C)CC/C=C(\C)CC/C=C(\C)CC/C=C(\C)CC/C=C(\C)CC/C=C(\C)CC/C=C(\C)CCC=C(C)C)c(O)c1OC` [conventionally known reduced coenzyme Q10 crystal], the solubility in hexane in data set [1] is on record as ≥ 30 % by weight. Further, the solubility in ethanol in data set [3] is recorded as ≥ 4 % by weight.
Consider `COc1c(O)c(C)c(C/C=C(\C)CC/C=C(\C)CC/C=C(\C)CC/C=C(\C)CC/C=C(\C)CC/C=C(\C)CC/C=C(\C)CC/C=C(\C)CC/C=C(\C)CCC=C(C)C)c(O)c1OC` [Example 1, reduced coenzyme Q10], for which the solubility in hexane in data set [1] stood at 9 % by weight. In addition, in data set [2], the “sticking property due to electrostatic charge” value is on record as “did not exhibit sticking property”.
As for `COc1c(O)c(C)c(C/C=C(\C)CC/C=C(\C)CC/C=C(\C)CC/C=C(\C)CC/C=C(\C)CC/C=C(\C)CC/C=C(\C)CC/C=C(\C)CC/C=C(\C)CCC=C(C)C)c(O)c1OC` [reduced coenzyme Q10 crystal of the present invention], the solubility in hexane in data set [1] was ≤ 15 % by weight. For the same compound, in data set [3], the solubility in ethanol result is given as “less than 4 % by weight”.
